# Assay results published in patent US20230122344A1, “ANTAGONISTS OF THE MUSCARINIC ACETYLCHOLINE RECEPTOR M4” (Vanderbilt University, priority 2019, published 2023).
# Biological target: T1, Human M4 (Homo sapiens, UniProt P08173)
# T1 construct: expressed in transfected cells; host or cells: CHO-K1 (ATCC), co-transfected with chimeric G protein Gqi5
# T1 sequence (P08173 1-479): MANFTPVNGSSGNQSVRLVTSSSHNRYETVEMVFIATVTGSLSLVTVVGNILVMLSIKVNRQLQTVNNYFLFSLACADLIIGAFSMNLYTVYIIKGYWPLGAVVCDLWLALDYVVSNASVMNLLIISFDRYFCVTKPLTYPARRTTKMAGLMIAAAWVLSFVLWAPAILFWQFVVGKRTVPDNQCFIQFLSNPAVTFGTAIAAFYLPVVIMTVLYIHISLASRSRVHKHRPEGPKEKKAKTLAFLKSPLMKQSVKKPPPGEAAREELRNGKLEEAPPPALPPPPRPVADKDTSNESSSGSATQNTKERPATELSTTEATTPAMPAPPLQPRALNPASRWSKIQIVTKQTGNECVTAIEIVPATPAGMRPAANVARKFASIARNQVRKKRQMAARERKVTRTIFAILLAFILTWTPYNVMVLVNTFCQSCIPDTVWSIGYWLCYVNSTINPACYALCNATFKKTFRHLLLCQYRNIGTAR
# Test: mAChR M4 cell-based functional assay (calcium flux, antagonism of EC80 acetylcholine response)
# Conditions: M4/Gqi5/CHO-K1 cells; for remaining activity at 30 µM: CHO-K1, % ACh maximum at 30 μM, read-out: Human M4 Emin; for IC50: decrease of response elicited by EC80 acetylcholine
# Method in brief: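 CHO-K1 cells stably expressing human or rat M4 with Gqi5, Fluo-4 loaded; calcium measured by fluorescence ratio on FDSS. Compound added, then EC20 acetylcholine at 143 s and EC80 at 268 s; IC50 from decrease of EC80 response, four-parameter logistic fit.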
remaining activity at 30 µM,IC50,SMILES
4%,49 nM,"Cc1ccc(C(F)(F)F)cc1-c1cc(C(F)F)c(N[C@H]2C[C@@H]3CN(CC4CCOCC4)C[C@@H]3C2)nn1 [compound 82, (3aR,5s,6aS)-N-(4-(difluoromethyl)-6-(2-methyl-5-(trifluoromethyl)phenyl)pyridazin-3-yl)-2-((tetrahydro-2H-pyran-4-yl)methyl)octahydrocyclopenta[c]pyrrol-5-amine]"
5%,2.3 nM,"Cn1cc2cc(-c3cc(C(F)F)c(N[C@H]4C[C@@H]5CN(CC6CCOCC6)C[C@@H]5C4)nn3)ccc2n1 [compound 83, (3aR,5s,6aS)-N-(4-(difluoromethyl)-6-(2-methyl-2H-indazol-5-yl)pyridazin-3-yl)-2-((tetrahydro-2H-pyran-4-yl)methyl)octahydrocyclopenta[c]pyrrol-5-amine]"
3%,0.89 nM,"Cc1c(-c2cc(C(F)F)c(N[C@H]3C[C@@H]4CN(CC5CCOCC5)C[C@@H]4C3)nn2)ccc2nn(C)cc12 [compound 84, (3aR,5s,6aS)-N-(4-(difluoromethyl)-6-(2,4-dimethyl-2H-indazol-5-yl)pyridazin-3-yl)-2-((tetrahydro-2H-pyran-4-yl)methyl)octahydrocyclopenta[c]pyrrol-5-amine]"
4%,11 nM,"COc1ccc(F)cc1-c1cc(C(F)F)c(N[C@H]2C[C@@H]3CN(CC4CCOCC4)C[C@@H]3C2)nn1 [compound 85, (3aR,5s,6aS)-N-(4-(difluoromethyl)-6-(5-fluoro-2-methoxyphenyl)pyridazin-3-yl)-2-((tetrahydro-2H-pyran-4-yl)methyl)octahydrocyclopenta[c]pyrrol-5-amine]"
5%,19 nM,"FC(F)c1cc(-c2ccccc2OC(F)(F)F)nnc1N[C@H]1C[C@@H]2CN(CC3CCOCC3)C[C@@H]2C1 [compound 86, (3aR,5s,6aS)-N-(4-(difluoromethyl)-6-(2-(trifluoromethoxy)phenyl)pyridazin-3-yl)-2-((tetrahydro-2H-pyran-4-yl)methyl)octahydrocyclopenta[c]pyrrol-5-amine]"
3%,4.9 nM,"Fc1ccc(C(F)(F)F)c(-c2cc(C(F)F)c(N[C@H]3C[C@@H]4CN(CC5CCOCC5)C[C@@H]4C3)nn2)c1 [compound 87, (3aR,5s,6aS)-N-(4-(difluoromethyl)-6-(5-fluoro-2-(trifluoromethyl)phenyl)pyridazin-3-yl)-2-((tetrahydro-2H-pyran-4-yl)methyl)octahydrocyclopenta[c]pyrrol-5-amine]"
3%,10 nM,"[2H]C([2H])(C1CCOCC1)N1C[C@H]2C[C@H](Nc3nnc(-c4cc(F)cc(F)c4F)cc3C(F)F)C[C@H]2C1 [compound 88, (3aR,5s,6aS)-N-(4-(difluoromethyl)-6-(2,3,5-trifluorophenyl)pyridazin-3-yl)-2-((tetrahydro-2H-pyran-4-yl)methyl-d2)octahydrocyclopenta[c]pyrrol-5-amine]"
